These results are taken from ChEMBL document CHEMBL5506059, “Cyanomethylquinolones as a New Class of Potential Multitargeting Broad-Spectrum Antibacterial Agents” (J Med Chem, 2024).

Data set [1] deals with Staphylococcus aureus. Nature of the data set: Antibacterial activity against methicillin resistant Staphylococcus aureus clinical isolate assessed as inhibition of bacterial growth incubated for 24 hrs. It is filed as functional.
Data set [2] deals with Staphylococcus aureus. Nature of the data set: Antibacterial activity against Staphylococcus aureus clinical isolate assessed as inhibition of bacterial growth incubated for 24 hrs. Format: functional.
Data set [3] relates to Staphylococcus aureus. In words: Antibacterial activity against Staphylococcus aureus ATCC 25923 assessed as inhibition of bacterial growth incubated for 24 hrs. It is filed as functional.
The subject of data set [4] is Staphylococcus aureus. In words: Antibacterial activity against Staphylococcus aureus ATCC 29213 assessed as inhibition of bacterial growth incubated for 24 hrs. It is filed as functional.
In data set [5] the test system is Enterococcus faecalis. In words: Antibacterial activity against Enterococcus faecalis clinical isolate assessed as inhibition of bacterial growth incubated for 24 hrs. Format: functional.
In a further data set the test system is Klebsiella pneumoniae. Nature of the data set: Antibacterial activity against Klebsiella pneumoniae clinical isolate assessed as inhibition of bacterial growth incubated for 24 hrs. Format: functional.
Data set [6] has as its system Escherichia coli. In words: Antibacterial activity against Escherichia coli clinical isolate assessed as inhibition of bacterial growth incubated for 24 hrs. It is filed as functional.
Data set [7] deals with Escherichia coli. In words: Antibacterial activity against Escherichia coli ATCC 25922 assessed as inhibition of bacterial growth incubated for 24 hrs. It is filed as functional.
Data set [8] concerns Pseudomonas aeruginosa. Nature of the data set: Antibacterial activity against Pseudomonas aeruginosa clinical isolate assessed as inhibition of bacterial growth incubated for 24 hrs. It is filed as functional.
Data set [9] deals with Pseudomonas aeruginosa. In words: Antibacterial activity against Pseudomonas aeruginosa ATCC 27853 assessed as inhibition of bacterial growth incubated for 24 hrs. Format: functional.
The next data set relates to Acinetobacter baumannii. In words: Antibacterial activity against Acinetobacter baumannii clinical isolate assessed as inhibition of bacterial growth incubated for 24 hrs. It is filed as functional.
The subject of a further data set is Streptococcus pneumoniae. In words: Antibacterial activity against Streptococcus pneumoniae ATCC 6305 assessed as inhibition of bacterial growth incubated for 24 hrs. It is filed as functional.
Another data set concerns Streptococcus pyogenes. In words: Antibacterial activity against Streptococcus pyogenes ATCC 19615 assessed as inhibition of bacterial growth incubated for 24 hrs. It is filed as functional.
Data set [10] concerns Staphylococcus epidermidis. Nature of the data set: Antibacterial activity against Staphylococcus epidermidis ATCC 12228 assessed as inhibition of bacterial growth incubated for 24 hrs. Format: functional.
The test system of data set [11] is Staphylococcus aureus. Nature of the data set: Antibacterial activity against methicillin-resistant Staphylococcus aureus ATCC 43300 assessed as inhibition of bacterial growth incubated for 24 hrs. It is filed as functional.
Data set [12] concerns Staphylococcus aureus. Nature of the data set: Antibacterial activity against Staphylococcus aureus ATCC 12600 assessed as inhibition of bacterial growth incubated for 24 hrs. Format: functional.
Data set [13] has as its system Staphylococcus aureus. In words: Antibacterial activity against Staphylococcus aureus ATCC 6538 assessed as inhibition of bacterial growth incubated for 24 hrs. It is filed as functional.
In data set [14] the test system is Staphylococcus aureus. In words: Antibacterial activity against Staphylococcus aureus CMCC(B)26003 assessed as inhibition of bacterial growth incubated for 24 hrs. Format: functional.
Data set [15] concerns Staphylococcus aureus. In words: Antibacterial activity against Staphylococcus aureus CMCC(B)26001 assessed as inhibition of bacterial growth incubated for 24 hrs. Format: functional.
The next data set deals with Enterococcus faecium. In words: Antibacterial activity against Enterococcus faecium ATCC 19434 assessed as inhibition of bacterial growth incubated for 24 hrs. Format: functional.
Data set [16] relates to Enterococcus faecalis. Nature of the data set: Antibacterial activity against vancomycin-resistant Enterococcus faecalis clinical isolate p1-2007226001 assessed as inhibition of bacterial growth incubated for 24 hrs. It is filed as functional.
Data set [17] concerns Enterococcus faecalis. In words: Antibacterial activity against vancomycin-resistant Enterococcus faecalis clinical isolate p1-2007225053 assessed as inhibition of bacterial growth incubated for 24 hrs. It is filed as functional.
The subject of another data set is Erythrocyte. Nature of the data set: Hemolytic activity in human Red blood cells assessed as concentration required for 5% hemolysis measured after 1.5 hrs by absorbance based assay. Format: toxicity, cell-based.

The term MIC denotes the least concentration at which growth counts as inhibited.

≈ marks a conversion by molar mass, not a printed value.

For `CCCCCCCCn1cc(C(=O)O)c(=O)c2cc(F)c(CC(=O)O)cc21`, the minimal inhibitory concentration (MIC) in the data set with Staphylococcus aureus [1] stood at 4 µg/mL (≈ 10.6 µM); in the data set on Staphylococcus aureus [2], 16 µg/mL (≈ 42.4 µM); in the data set with Staphylococcus aureus [3] it was 4 µg/mL (≈ 10.6 µM); with Staphylococcus aureus [4] it was 4 µg/mL (≈ 10.6 µM); in the data set with Enterococcus faecalis [5], 2 µg/mL (≈ 5.3 µM); with Klebsiella pneumoniae, 0.5 µg/mL (≈ 1.32 µM). The MIC with Escherichia coli [6] came out at 2 µg/mL (≈ 5.3 µM); with Escherichia coli [7], 2 µg/mL (≈ 5.3 µM); in the data set with Pseudomonas aeruginosa [8] it was 1 µg/mL (≈ 2.65 µM); in the data set on Pseudomonas aeruginosa [9], 2 µg/mL (≈ 5.3 µM); with Acinetobacter baumannii, 4 µg/mL (≈ 10.6 µM).

As to `N#CCc1cc2c(cc1F)c(=O)c(C(=O)O)cn2Cc1ccc(F)cc1F`, the minimal inhibitory concentration (MIC) is 256 µg/mL (≈ 688 µM) with Staphylococcus aureus [1]; 256 µg/mL (≈ 688 µM) in the data set with Staphylococcus aureus [2]; 0.25 µg/mL (≈ 0.671 µM) in the data set on Staphylococcus aureus [3]; 0.5 µg/mL (≈ 1.34 µM) with Staphylococcus aureus [4]; 256 µg/mL (≈ 688 µM) in the data set with Enterococcus faecalis [5]; 8 µg/mL (≈ 21.5 µM) in the data set on Klebsiella pneumoniae. The MIC in the data set with Escherichia coli [6] is 0.5 µg/mL (≈ 1.34 µM); in the data set with Escherichia coli [7], 0.25 µg/mL (≈ 0.671 µM); with Pseudomonas aeruginosa [8], 0.5 µg/mL (≈ 1.34 µM); in the data set with Pseudomonas aeruginosa [9] it was 0.5 µg/mL (≈ 1.34 µM); with Acinetobacter baumannii, 4 µg/mL (≈ 10.7 µM); with Streptococcus pneumoniae it was 32 µg/mL (≈ 86 µM). Also, the MIC is 0.25 µg/mL (≈ 0.671 µM) with Streptococcus pyogenes; 64 µg/mL (≈ 172 µM) in data set [10]; 128 µg/mL (≈ 344 µM) in the data set with Staphylococcus aureus [11]; 64 µg/mL (≈ 172 µM) with Staphylococcus aureus [12]; 32 µg/mL (≈ 86 µM) in the data set with Staphylococcus aureus [13]; 2 µg/mL (≈ 5.37 µM) in the data set with Staphylococcus aureus [14]. Further, the minimum inhibitory concentration (MIC) with Staphylococcus aureus [15] was found to be 2 µg/mL (≈ 5.37 µM); in the data set on Enterococcus faecium, 128 µg/mL (≈ 344 µM); with Enterococcus faecalis [16], 64 µg/mL (≈ 172 µM); in the data set with Enterococcus faecalis [17], 64 µg/mL (≈ 172 µM). The HC5 in the data set on Erythrocyte was 60 µg/mL.

`N#CCc1cc2c(cc1F)c(=O)c(C(=O)O)cn2CCN1CCOCC1`: the minimum inhibitory concentration (MIC) in the data set on Staphylococcus aureus [1] was 8 µg/mL (≈ 22.3 µM); in the data set on Staphylococcus aureus [2], 16 µg/mL (≈ 44.5 µM); in the data set with Staphylococcus aureus [3], 1 µg/mL (≈ 2.78 µM); with Staphylococcus aureus [4], 4 µg/mL (≈ 11.1 µM); in the data set with Enterococcus faecalis [5], 16 µg/mL (≈ 44.5 µM); in the data set with Klebsiella pneumoniae, 8 µg/mL (≈ 22.3 µM). The minimal inhibitory concentration (MIC) in the data set on Escherichia coli [6] was 16 µg/mL (≈ 44.5 µM); with Escherichia coli [7], 4 µg/mL (≈ 11.1 µM); in the data set with Pseudomonas aeruginosa [8], 2 µg/mL (≈ 5.57 µM); in the data set with Pseudomonas aeruginosa [9] it was 16 µg/mL (≈ 44.5 µM); in the data set on Acinetobacter baumannii it was 8 µg/mL (≈ 22.3 µM).

Regarding `O=C(O)Cc1cc2c(cc1F)c(=O)c(C(=O)O)cn2Cc1ccccc1`, the MIC with Staphylococcus aureus [1] amounted to 16 µg/mL (≈ 45 µM); with Staphylococcus aureus [2], 32 µg/mL (≈ 90.1 µM); with Staphylococcus aureus [3], 16 µg/mL (≈ 45 µM); in the data set on Staphylococcus aureus [4], 64 µg/mL (≈ 180 µM); in the data set with Enterococcus faecalis [5] it was 32 µg/mL (≈ 90.1 µM); in the data set on Klebsiella pneumoniae it was 4 µg/mL (≈ 11.3 µM). Besides, the MIC in the data set on Escherichia coli [6] amounted to 64 µg/mL (≈ 180 µM); with Escherichia coli [7], 8 µg/mL (≈ 22.5 µM); in the data set with Pseudomonas aeruginosa [8] it was 32 µg/mL (≈ 90.1 µM); in the data set with Pseudomonas aeruginosa [9] it was 8 µg/mL (≈ 22.5 µM); with Acinetobacter baumannii, 64 µg/mL (≈ 180 µM).

Turning to `N#CCc1cc2c(cc1F)c(=O)c(C(=O)O)cn2Cc1ccc(Cl)cc1`, the minimal inhibitory concentration (MIC) amounted to 256 µg/mL (≈ 690 µM) with Staphylococcus aureus [1]; 256 µg/mL (≈ 690 µM) in the data set on Staphylococcus aureus [2]; 0.5 µg/mL (≈ 1.35 µM) with Staphylococcus aureus [3]; 4 µg/mL (≈ 10.8 µM) with Staphylococcus aureus [4]; 256 µg/mL (≈ 690 µM) in the data set on Enterococcus faecalis [5]; 256 µg/mL (≈ 690 µM) in the data set with Klebsiella pneumoniae. For the same compound, the MIC in the data set with Escherichia coli [6] turned out to be 256 µg/mL (≈ 690 µM); with Escherichia coli [7] it was 256 µg/mL (≈ 690 µM); with Pseudomonas aeruginosa [8], 0.5 µg/mL (≈ 1.35 µM); in the data set on Pseudomonas aeruginosa [9], 256 µg/mL (≈ 690 µM); in the data set with Acinetobacter baumannii, 16 µg/mL (≈ 43.2 µM).

For the compound `N#CCc1cc2c(cc1F)c(=O)c(C(=O)O)cn2CC1CCCC1`, the minimum inhibitory concentration (MIC) in the data set with Staphylococcus aureus [1] was 256 µg/mL (≈ 780 µM); with Staphylococcus aureus [2], 128 µg/mL (≈ 390 µM); with Staphylococcus aureus [3], 64 µg/mL (≈ 195 µM); in the data set on Staphylococcus aureus [4], 256 µg/mL (≈ 780 µM); in the data set with Enterococcus faecalis [5], 256 µg/mL (≈ 780 µM); in the data set on Klebsiella pneumoniae, 256 µg/mL (≈ 780 µM). Further, the MIC with Escherichia coli [6] is 32 µg/mL (≈ 97.5 µM); in the data set on Escherichia coli [7] it was 256 µg/mL (≈ 780 µM); in the data set on Pseudomonas aeruginosa [8], 256 µg/mL (≈ 780 µM); in the data set on Pseudomonas aeruginosa [9], 128 µg/mL (≈ 390 µM); with Acinetobacter baumannii it was 128 µg/mL (≈ 390 µM).

As for `N#CCc1cc2c(cc1F)c(=O)c(C(=O)O)cn2Cc1ccc([N+](=O)[O-])cc1`, the MIC amounted to 128 µg/mL (≈ 336 µM) in the data set with Staphylococcus aureus [1]; 256 µg/mL (≈ 671 µM) with Staphylococcus aureus [2]; 32 µg/mL (≈ 83.9 µM) in the data set with Staphylococcus aureus [3]; 256 µg/mL (≈ 671 µM) in the data set with Staphylococcus aureus [4]; 8 µg/mL (≈ 21 µM) in the data set on Enterococcus faecalis [5]; 8 µg/mL (≈ 21 µM) in the data set with Klebsiella pneumoniae. Besides, the minimal inhibitory concentration (MIC) with Escherichia coli [6] came out at 256 µg/mL (≈ 671 µM); in the data set with Escherichia coli [7] it was 128 µg/mL (≈ 336 µM); in the data set with Pseudomonas aeruginosa [8], 4 µg/mL (≈ 10.5 µM); in the data set with Pseudomonas aeruginosa [9], 32 µg/mL (≈ 83.9 µM); in the data set on Acinetobacter baumannii it was 256 µg/mL (≈ 671 µM).
